Source: US20250275993A1, “GLYCOSYLATION INHIBITORS AS THERAPEUTICS FOR STROKE” (The Regents of the University of California, priority 2022, published 2025)

What was measured:
HUVEC = HUVEC proliferation assay; assay type: cell-based, human
Experimental: (§1) Proliferation assays with BCECs and BRECs were performed. Log-phase growing BCECs or BRECs (passage <10) were trypsinized, re-suspended and seeded in 96-well plates (no coating) in low-glucose DMEM supplemented with 10% bovine calf serum, 2 mM glutamine, and antibiotics (growth medium), at a density of 1200-1500 cells per well in 200 μl volume. All reagents were added at the indicated final concentrations. After 3-6 days, cells were incubated with AlamarBlue for 4 hrs. Fluorescence was measured at 530 nm excitation wavelength and 590 nm emission wavelength. The experiments were repeated at least three times. To create a hypoxic condition, cells were placed in a hypoxia incubator with a mixture of gas consisting of 1% O2, 5% CO2 and 94% N2. On each 96-well plate, untreated and VEGF-treated (10/ng/ml) wells were included to monitor plate-to-plate variations. 20% methanol or 0.05% DMSO served as negative controls. […] Human RMVECs and human adult DMVECs were split into Gelatin-coated 96 wells (2000 cells per well) in low glucose DMEM containing 10% FBS. 1200 cells/well was set up for proliferation assay in low glucose media containing 0.5% FBS. Data was collected at day 4 or 5. HUVEC (p7-10) were grown on gelatin-coated plate until it reached 70-80% confluency.
On the day of the assay, cells were dissociated with 0.05% trypsin, which was neutralized with 0.5% FBS-containing EBM. Cells were briefly spun and then re-suspended in 0.5% FBS-media. Cells were counted and plated in 96-well, 1000 cells/well. Triplicate wells were used for each treatment. Data were collected at day 3, and then cells were fixed in 4% paraformaldehyde for 15 min before adding crystal violet. Cell-covered areas were quantified after taking pictures by Image J software.

[1] = test system: dermal microvascular endothelial cells (hDMVECs); assay: hDMVEC proliferation assay; assay type: cell-based, human
Experimental: as §1
(§2) Proliferation assays with fibroblasts were done in low-glucose DMEM containing 1% FBS, with or without 10 ng/ml bFGF, or 100 ng/ml human EGF and the assay was ended at day 3. ARPE-19 cells were gently lifted with 0.025% trypsin and plated in RtEGM media (Clonetics) containing 2% FBS, L-glutamine, human bFGF and GA-1000. Once cells were attached to plates, serum-free RtEGM media was used to maintain the cultures. For proliferation assays, 1500 human RPE cells were plated into 96-well plates in low-glucose DMEM containing 1% FBS. A673, U87MG, Calu6 and AML12 cells were grown until confluent and were then harvested and re-suspended in appropriate assay media. […] Four days later, tumor cell growth was measured by the MTS assay (Promega, Madison, WI), a colorimetric assay that measures metabolic activity of viable cells. […]

[2] = test system: VEGF, VEGFR2 and GLUT1 & 4; assay: Gene expression analysis by real-time Q PCR in BCECs; assay type: cell-based, bovine; settings: various concentrations of ManN; 4 hours (gene) or 24 hours (protein)
Experimental: RNA was prepared using the RNeasy Mini Kit (Qiagen). Fifty ng of total RNA per reaction was used for the real-time PCR (Taqman) analysis. Reactions were set up in MicroAmp Fast Optical 96-well reaction plate, seal with MicroAmp optical Adhesion film and run on ViiA7 Real time PCR system (Applied Biosystems) and the absolute quantification with standard curve was used with Sequence Detection System (SDS) software. The expression level of each gene was further quantified relative to the housekeeping gene RPL19 in the same sample. Taqman primers and probe mixes were obtained from Thermo Fisher Scientific. Bovine VEGF-A (Bt03213282), bovine RPL19 (Bt03229687) and bovine specific VEGFR2 (Bt03258877), GLUT1 (Bt03215313) and GLUT4 (Bt03215316).

VEGFR2 on cell surface = assay: Biotinylation of surface proteins in BCECs; assay type: cell-based, bovine; settings: ManN-treated BCECs
Experimental: BCECs were plated in 10 cm cell culture dishes 3 days prior to the cell surface protein isolation. Cells were washed three times with Dulbecco's PBS with CaCl2 and MgCl2, followed by a 30 min incubation with EZ-Link Sulfo-NHS-SS-Biotin (Pierce, Rockford, IL, USA; 0.5 mg/ml in Dulbecco) on ice. Cells were washed twice with Dulbecco and the non-reacted biotin was blocked with 20 mM glycine for 15 mins. To prevent the reduction of the disulfide bridge in the biotin molecule during the cell lysis process, a 100 μM oxidized glutathione (Sigma-Aldrich, St. Louis, MO) was added in the last wash solution. For cell lysis 500 μL of lysis buffer (2% NP-40, 1% Triton X-100, 10% glycerol, 100 μM oxidized glutathione, EDTA free protease inhibitor tablet (Roche, Mannheim, Germany) in PBS was added to the cells. Lysed cell extracts were scraped off the plates and transferred to an Eppendorf tube followed by incubation on ice on a shaker for 30 mins. The cell extracts were incubated with 30 U of DNase (22° C. 50 mins, Roche, Mannheim, Germany) and centrifuged for 20 mins (20,800×g, at 4° C.) to pellet the insoluble material. The protein concentration of the supernatants was determined. Equal amounts of protein (−2 mg) from each extract were used for cell surface protein isolation. […]

Calu6 = Calu6 proliferation assay; assay type: cell-based; settings: ManN
Experimental: as §2, with “media. For proliferation assays, cells were plated at the density of 1000-2000 cells/well in low-glucose DMEM containing 5% FBS or otherwise stated. Bovine pituitary cells (pituitary folliculostellate cells) were isolated as previously described. For proliferation assays with human epidermal keratinocytes, human DMVECs and human dermal fibroblast cells, 1000 cells/well were plated in low-glucose DMEM containing 1% FBS with or without various growth factors. The assay was ended at day 3 for bovine pituitary cells and at day 4 for all the other cell types.” for “media.”

U87MG = U87MG proliferation assay; assay type: cell-based; settings: ManN
Experimental: as §2, with “media. For proliferation assays, cells were plated at the density of 1000-2000 cells/well in low-glucose DMEM containing 5% FBS or otherwise stated. Bovine pituitary cells (pituitary folliculostellate cells) were isolated as previously described. For proliferation assays with human epidermal keratinocytes, human DMVECs and human dermal fibroblast cells, 1000 cells/well were plated in low-glucose DMEM containing 1% FBS with or without various growth factors. The assay was ended at day 3 for bovine pituitary cells and at day 4 for all the other cell types.” for “media.”

Structure (SMILES): N[C@H](C=O)[C@@H](O)[C@H](O)[C@H](O)CO [ManN, 2-Amino-2-deoxy-D-mannose]
- toxicity on HUVEC (HUVEC; 5 mM ManN): minimal toxicity
- HUVEC growth, ManN by itself (HUVEC; ManN alone): stimulated
- additivity with VEGF on HUVEC proliferation (HUVEC; with VEGF): dose-dependent additivity with VEGF
- toxicity on hDMVECs ([1]; 5 mM ManN): minimal toxicity
- hDMVECs growth, ManN by itself ([1]; ManN alone): stimulated
- additivity with VEGF on hDMVEC proliferation ([1]; with VEGF): dose-dependent additivity with VEGF
- transcription of VEGF, VEGFR2, GLUT1 & 4 and total VEGFR2 protein expression [2]: neither transcription of VEGF, VEGFR2 and GLUT] & 4 nor total VEGFR2 protein expression was significantly changed
- amount of VEGFR2 on cell surface (VEGFR2 on cell surface): no changes
- growth of Calu6 (Calu6): did not promote growth
- growth of U87MG (U87MG): did not promote growth
